Measured values reported in ChEMBL document CHEMBL1201862, “PubChem BioAssay data set” (2004).
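Tested at 5 concentrations; 48 h exposure; 96-well plates; endpoints linearly interpolated, else capped at highest concentration. At the GI50, growth is halved.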 Active and inactive are the calls of the source. Cut-off read from the data, not from the text of the source: active = GI50 up to about 1.1 µM and inactive = higher.

How the values were obtained:
Assay in all cases: DTP human tumour cell line panel, 48 h
[1] = tested on: SN12C
[2] = tested on: U-251
[3] = tested on: HOP-62
[4] = tested on: K562
[5] = tested on: UO-31
[6] = tested on: OVCAR-3
[7] = tested on: LOX IMVI
[8] = tested on: OVCAR-4
[9] = tested on: HL-60
[10] = tested on: NCI-H226
[11] = tested on: CCRF-CEM
[12] = tested on: SK-MEL-2
[13] = tested on: OVCAR-5
[14] = tested on: A498
[15] = tested on: SR
[16] = tested on: SK-MEL-5
[17] = tested on: RPMI-8226

Row | Compound | GI50 [1] | GI50 [2] | GI50 [3] | GI50 [4] | GI50 [5] | GI50 [6] | GI50 [7] | GI50 [8] | GI50 [9] | GI50 [10] | GI50 [11] | GI50 [12] | GI50 [13] | GI50 [14] | GI50 [15] | GI50 [16] | GI50 [17]
1 | CCOC(=O)C1(C)CCCCC(=O)N1 (stereo unspecified) | > 100 µM (inactive) | > 100 µM (inactive) | > 100 µM (inactive) | > 100 µM (inactive) | > 100 µM (inactive) | > 100 µM (inactive) | > 100 µM (inactive) | > 100 µM (inactive) | > 100 µM (inactive) |  |  |  |  |  |  |  | 
2 | CC1C2=CC=C(O2)C(C)(C)C2=CC=C(O2)C(C)(C)C2=CC=C(O2)C(C)(C)C2=CC=C1O2 | > 100 µM (inactive) | > 100 µM (inactive) | > 100 µM (inactive) | > 100 µM (inactive) |  |  | > 100 µM (inactive) | > 100 µM (inactive) | > 100 µM (inactive) | > 100 µM (inactive) | > 100 µM (inactive) | > 100 µM (inactive) | > 100 µM (inactive) | > 100 µM (inactive) | > 100 µM (inactive) |  | 
3 | O=C(Nc1nc2ncn(CCOC(=O)c3ccccc3)c2c(=S)[nH]1)c1ccccc1 | > 100 µM (inactive) | 31.8 µM (inactive) | 28.2 µM (inactive) | 60.8 µM (inactive) | 61.7 µM (inactive) | 43.1 µM (inactive) | > 100 µM (inactive) | 23.5 µM (inactive) | > 100 µM (inactive) | 47.5 µM (inactive) | > 100 µM (inactive) | 41.6 µM (inactive) | > 100 µM (inactive) | 95.7 µM (inactive) |  | > 100 µM (inactive) | > 100 µM (inactive)
4 | CCOC(=O)N1Cc2ccoc2C1 | > 100 µM (inactive) | > 100 µM (inactive) | > 100 µM (inactive) | > 100 µM (inactive) | > 100 µM (inactive) | > 100 µM (inactive) | > 100 µM (inactive) | > 100 µM (inactive) | > 100 µM (inactive) | > 100 µM (inactive) | > 100 µM (inactive) | > 100 µM (inactive) | > 100 µM (inactive) |  | > 100 µM (inactive) | > 100 µM (inactive) | > 100 µM (inactive)
5 | O=C(CC(=O)C1=CNc2ccccc2S1)C(=O)Nc1ccc(Cl)cc1 | > 50 µM (inactive) | > 50 µM (inactive) | > 50 µM (inactive) | > 24.3 µM (inactive) | > 50 µM (inactive) | > 50 µM (inactive) | > 50 µM (inactive) | > 50 µM (inactive) | > 34 µM (inactive) | 49.4 µM (inactive) | > 50 µM (inactive) | > 50 µM (inactive) | > 50 µM (inactive) | > 50 µM (inactive) |  | > 50 µM (inactive) | > 50 µM (inactive)
6 | O=C(COc1ccccc1Cl)N1N=C(c2ccccc2)CC1(O)c1ccccc1 (stereo unspecified) | 12.9 µM (inactive) | 11.7 µM (inactive) | 15.1 µM (inactive) | 14.3 µM (inactive) | 10.1 µM (inactive) | 15.9 µM (inactive) | 16.7 µM (inactive) | 11.3 µM (inactive) | 9.42 µM (inactive) | 18.5 µM (inactive) |  | 18.9 µM (inactive) | 19.4 µM (inactive) |  | 4.61 µM (inactive) |  | 8.17 µM (inactive)
7 | CCCCCCCCCCCCCCCCc1c(O)nc(NC#N)nc1C(=O)OC | > 25 µM (inactive) | > 25 µM (inactive) | > 25 µM (inactive) | > 25 µM (inactive) | > 25 µM (inactive) | > 25 µM (inactive) | > 25 µM (inactive) | > 25 µM (inactive) | > 25 µM (inactive) | > 25 µM (inactive) | > 25 µM (inactive) | > 25 µM (inactive) | > 25 µM (inactive) | > 25 µM (inactive) |  |  | > 25 µM (inactive)
8 | CC1CN1c1c(C(=O)/C=C/c2ccc(Cl)cc2)c(-c2ccccc2)nn(C)c1=O (stereo unspecified) | 3.11 µM (inactive) | 2.35 µM (inactive) | 2.82 µM (inactive) | 2.82 µM (inactive) | 6.44 µM (inactive) | 2.6 µM (inactive) | 2.08 µM (inactive) | 2.61 µM (inactive) | 2.23 µM (inactive) | 4.99 µM (inactive) | 2.24 µM (inactive) | 2.4 µM (inactive) | 5.47 µM (inactive) | 4.08 µM (inactive) |  |  | 
9 | COC1OC(COCc2ccc(Cl)cc2)C(OCc2ccc(Cl)cc2)C1N=[N+]=[N-] (stereo unspecified) | > 100 µM (inactive) | > 100 µM (inactive) |  | 49.8 µM (inactive) | > 100 µM (inactive) | 47.8 µM (inactive) |  | > 100 µM (inactive) |  | > 100 µM (inactive) |  | > 100 µM (inactive) | > 100 µM (inactive) |  | 36.2 µM (inactive) | 44 µM (inactive) | 19.4 µM (inactive)
10 | COC(=O)C(=O)C(C#N)c1nc2ccccc2s1 (stereo unspecified) | > 100 µM (inactive) |  | > 100 µM (inactive) | 57.4 µM (inactive) | 39.8 µM (inactive) | > 100 µM (inactive) | > 100 µM (inactive) | > 100 µM (inactive) | 92.9 µM (inactive) | 23.9 µM (inactive) | 75.2 µM (inactive) | > 100 µM (inactive) | > 100 µM (inactive) | > 100 µM (inactive) |  | > 100 µM (inactive) | > 100 µM (inactive)
11 | O=C(CCC(=O)N/N=C/c1ccccc1O)N/N=C/c1ccccc1O | > 100 µM (inactive) | 32.7 µM (inactive) |  | > 100 µM (inactive) | > 100 µM (inactive) | 42.1 µM (inactive) |  | > 100 µM (inactive) |  | > 100 µM (inactive) |  | 17.5 µM (inactive) | > 100 µM (inactive) |  | > 100 µM (inactive) | > 100 µM (inactive) | > 100 µM (inactive)
12 | CC1=C(C)C(=O)c2c(cc3ccccn23)C1=O | 13.7 µM (inactive) | 14.1 µM (inactive) |  | 27.5 µM (inactive) | 24.3 µM (inactive) | 14.6 µM (inactive) | 5.14 µM (inactive) | 27.8 µM (inactive) | 17.4 µM (inactive) | 26.8 µM (inactive) | 27 µM (inactive) |  | 45.6 µM (inactive) | 21.2 µM (inactive) | 23.3 µM (inactive) | 10.4 µM (inactive) | 15.8 µM (inactive)
13 | CCOC(=O)C1(Cc2ccc3ccccc3c2)CCCCCN1 (stereo unspecified) | 29.4 µM (inactive) | 47 µM (inactive) | 64.3 µM (inactive) | 22.8 µM (inactive) | 20.3 µM (inactive) | 45.3 µM (inactive) | 20.1 µM (inactive) | 31.4 µM (inactive) | 18.8 µM (inactive) |  |  |  |  |  |  |  | 5.6 µM (inactive)
14 | CCOC(=O)c1cn(CC)c2cc3c(cc2c1=O)SCS3 | > 100 µM (inactive) | > 100 µM (inactive) | > 100 µM (inactive) | > 100 µM (inactive) | > 100 µM (inactive) | > 100 µM (inactive) | > 100 µM (inactive) | > 100 µM (inactive) | > 100 µM (inactive) |  | > 100 µM (inactive) | > 100 µM (inactive) | > 100 µM (inactive) |  |  | > 100 µM (inactive) | > 100 µM (inactive)
15 | Oc1cc(O)c2c(-c3c(O)c(-c4ccc(O)c(O)c4)[o+]c4cc(O)cc(O)c34)c(O)c(-c3ccc(O)c(O)c3)[o+]c2c1 | 39.9 µM (inactive) | 30.9 µM (inactive) | 38.9 µM (inactive) | > 10 µM (inactive) | 40.4 µM (inactive) | 20.7 µM (inactive) | 32.4 µM (inactive) | 27.5 µM (inactive) | > 10 µM (inactive) | 20.1 µM (inactive) | > 10 µM (inactive) |  | > 100 µM (inactive) | 38.5 µM (inactive) | 25.9 µM (inactive) | > 100 µM (inactive) | 63 µM (inactive)
16 | Nc1ccc(C2=N/C(=C\c3cccc(N)c3)C(=O)O2)cc1 | > 100 µM (inactive) | > 100 µM (inactive) |  | > 100 µM (inactive) | > 100 µM (inactive) | > 100 µM (inactive) |  | > 100 µM (inactive) | 57.5 µM (inactive) |  | 67.3 µM (inactive) | > 100 µM (inactive) | > 100 µM (inactive) |  | > 100 µM (inactive) | > 100 µM (inactive) | 
17 | Cc1cc(C(O)CCCc2ccccc2)cc(C)c1O (stereo unspecified) | 41.8 µM (inactive) | 45.7 µM (inactive) | 33.3 µM (inactive) | 28.6 µM (inactive) | 15.4 µM (inactive) | 31.1 µM (inactive) | 34 µM (inactive) |  | 16.6 µM (inactive) | 24 µM (inactive) | 27.7 µM (inactive) | 33.8 µM (inactive) | 43.9 µM (inactive) | 24.5 µM (inactive) |  | 22.5 µM (inactive) | 24.1 µM (inactive)
18 | O=C(N/N=C1\C(=O)N(c2nccs2)C(=O)C(=O)C1c1nc2ccccc2s1)c1ccccc1O (stereo unspecified) | 39.1 µM (inactive) | 49.8 µM (inactive) | 23.9 µM (inactive) | 19.7 µM (inactive) | 8.22 µM (inactive) | 35.9 µM (inactive) | 44.3 µM (inactive) | 39.8 µM (inactive) | 36.7 µM (inactive) | 71.1 µM (inactive) | 39.5 µM (inactive) | > 100 µM (inactive) | > 100 µM (inactive) | 65.3 µM (inactive) |  | 47.5 µM (inactive) | 61.4 µM (inactive)
19 | Cc1nc2c(nc1C)C(=O)C1=C(C2=O)C2C=CC1CC2 | 16.7 µM (inactive) | 5.35 µM (inactive) | 22.3 µM (inactive) | 2.48 µM (inactive) | 12.6 µM (inactive) | 5.83 µM (inactive) | 2.21 µM (inactive) | 1.93 µM (inactive) | 1.44 µM (inactive) | 14.5 µM (inactive) | 1.1 µM (active) | 13.2 µM (inactive) | 21.3 µM (inactive) | 41.9 µM (inactive) |  | 2.05 µM (inactive) | 2.17 µM (inactive)
